Data from PubChem BioAssay AID328 (DTP/NCI, 2004).
Toxic doses and inconclusive results are not listed.

Test system: BDF1 mice, P388 leukemia ip, median survival T/C
Experiment: NCI In Vivo Anticancer Drug Screen. Data for tumor model P388 Leukemia (intraperitoneal) in B6D2F1 (BDF1) mice
Conditions: endpoint: median survival time, higher = longer survival
Summary of the method: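 Vehicle-dosed animals serve as the reference; survival of compound-dosed, tumour-implanted mice is divided by it.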

[1] = dose: 100.0 mg/kg/injection, schedule: Q04DX003 (ip), vehicle: saline with Tween-80
[2] = dose: 200.0 mg/kg/injection, schedule: Q01DX009 (ip), vehicle: saline with Tween-80
[3] = dose: 200.0 mg/kg/injection, schedule: Q04DX003 (ip), vehicle: saline with Tween-80
[4] = dose: 400.0 mg/kg/injection, schedule: Q04DX003 (ip), vehicle: saline with Tween-80
[5] = dose: 12.5 mg/kg/injection, schedule: Q04DX003 (ip), vehicle: saline
[6] = dose: 50.0 mg/kg/injection, schedule: Q04DX003 (ip), vehicle: saline
[7] = dose: 50.0 mg/kg/injection, schedule: Q04DX003 (ip), vehicle: saline with Tween-80
[8] = dose: 100.0 mg/kg/injection, schedule: Q01DX009 (ip), vehicle: saline with Tween-80

Question: For `CN1CCC2=C(C1)C(N1CCCCC1)CS(=O)(=O)O2` (configuration not stated), which T/C (dose: 25.0 mg/kg/injection, schedule: Q04DX002 (ip), vehicle: saline) is on record?
Answer: 93 % of control

Question: And the T/C (dose: 50.0 mg/kg/injection, schedule: Q04DX002 (ip), vehicle: saline)?
Answer: 97 % of control

Question: What about the T/C (dose: 100.0 mg/kg/injection, schedule: Q04DX002 (ip), vehicle: saline with Tween-80) of the same compound?
Answer: 93 % of control

Question: How did the T/C [1] turn out when `COc1ccc(Cc2cc3cc(OC)c(OC)cc3cn2)cc1OC` was run?
Answer: 110 % of control

Question: What about the T/C [2] of the same compound?
Answer: 103 % of control

Question: And the T/C [3]?
Answer: 112 % of control

Question: What about the T/C (dose: 300.0 mg/kg/injection, schedule: Q01DX009 (ip), vehicle: saline with Tween-80) of the same compound?
Answer: 114 % of control

Question: And the T/C (dose: 400.0 mg/kg/injection, schedule: Q01DX009 (ip), vehicle: saline with Tween-80)?
Answer: 103 % of control

Question: What about the T/C [4] of the same compound?
Answer: 116 % of control

Question: And the T/C (dose: 500.0 mg/kg/injection, schedule: Q01DX009 (ip), vehicle: saline with Tween-80)?
Answer: 103 % of control

Question: For `CC(C)(C)C#C[P+](C#CC(C)(C)C)(Cc1ccccc1)c1ccccc1`, which T/C (dose: 12.5 mg/kg/injection, schedule: Q01DX009 (ip), vehicle: saline) is on record?
Answer: 96 % of control

Question: What about the T/C [5] of the same compound?
Answer: 123 % of control

Question: And the T/C (dose: 25.0 mg/kg/injection, schedule: Q04DX003 (ip), vehicle: saline)?
Answer: 123 % of control

Question: And the T/C [6]?
Answer: 107 % of control

Question: `Cc1cc2nc3c(=O)[nH]c(=O)nc-3n(CCOC(=O)CCC(=O)O)c2cc1C` was tested. Which T/C (dose: 50.0 mg/kg/injection, schedule: Q01DX009 (ip), vehicle: saline sonified) did it give?
Answer: 100 % of control

Question: And the T/C (dose: 100.0 mg/kg/injection, schedule: Q01DX009 (ip), vehicle: saline sonified)?
Answer: 100 % of control

Question: And the T/C (dose: 200.0 mg/kg/injection, schedule: Q01DX009 (ip), vehicle: saline sonified)?
Answer: 118 % of control

Question: What does the source list for `COc1cc2c3cc1Oc1c(O)c(OC)cc4c1C(Cc1cc5c(c(c1)Oc1ccc(cc1)CC3N(C)CC2)OCO5)N(C)CC4` (configuration not stated)?
Answer: T/C (dose: 1.25 mg/kg/injection, schedule: Q01DX010 (ip), vehicle: saline): 90 % of control; T/C (dose: 2.5 mg/kg/injection, schedule: Q01DX010 (ip), vehicle: saline): 95 % of control; T/C (dose: 5.0 mg/kg/injection, schedule: Q01DX010 (ip), vehicle: saline): 90 % of control; T/C (dose: 10.0 mg/kg/injection, schedule: Q01DX010 (ip), vehicle: saline): 86 % of control

Question: What does the source list for `CS(=O)(=O)OCCCCCCCCCOS(C)(=O)=O`?
Answer: T/C (dose: 33.0 mg/kg/injection, schedule: Q04DX003 (ip), vehicle: saline with Tween-80): 104 % of control; T/C [7]: 113 % of control

Question: How did the T/C [1] turn out when `CCSCCCCSCC` was run?
Answer: 104 % of control

Question: What about the T/C [3] of the same compound?
Answer: 104 % of control

Question: And the T/C [4]?
Answer: 100 % of control

Question: How did the T/C (dose: 1.5 mg/kg/injection, schedule: Q01DX009 (ip), vehicle: Klucel (hydroxypropylcellulose) (HPC)) turn out when `CCC[CH2][Sn]1([CH2]CCC)[N](S(=O)(=O)c2ccc(C)cc2)c2ccccc2[N]1S(=O)(=O)c1ccc(C)cc1` was run?
Answer: 91 % of control

Question: What about the T/C (dose: 6.0 mg/kg/injection, schedule: Q01DX009 (ip), vehicle: Klucel (hydroxypropylcellulose) (HPC)) of the same compound?
Answer: 150 % of control

Question: And the T/C (dose: 12.0 mg/kg/injection, schedule: Q01DX009 (ip), vehicle: Klucel (hydroxypropylcellulose) (HPC))?
Answer: 176 % of control

Question: What does the source list for `COc1cccc(N2C(=O)CSC2=S)c1`?
Answer: T/C [8]: 91 % of control; T/C [2]: 100 % of control

Question: Which T/C [5] does the source give for `CC(CN)OCc1ccccc1` (configuration not stated) here?
Answer: 100 % of control

Question: And the T/C [6]?
Answer: 100 % of control

Question: Which T/C (dose: 1.0 mg/kg/injection, schedule: Q04DX003 (ip), vehicle: saline) does the source give for `C/C=C1\C[N+]2(C)CCc3c([nH]c4ccccc34)C2CC1Cc1nccc2c1[nH]c1ccccc12` (configuration not stated) here?
Answer: 107 % of control

Question: What about the T/C (dose: 2.0 mg/kg/injection, schedule: Q04DX003 (ip), vehicle: saline) of the same compound?
Answer: 98 % of control

Question: What about the T/C (dose: 4.0 mg/kg/injection, schedule: Q04DX003 (ip), vehicle: saline) of the same compound?
Answer: 98 % of control

Question: And the T/C (dose: 6.0 mg/kg/injection, schedule: Q04DX003 (ip), vehicle: saline)?
Answer: 102 % of control

Question: What about the T/C (dose: 12.0 mg/kg/injection, schedule: Q04DX003 (ip), vehicle: saline) of the same compound?
Answer: 113 % of control

Question: What about the T/C (dose: 24.0 mg/kg/injection, schedule: Q04DX003 (ip), vehicle: saline) of the same compound?
Answer: 118 % of control

Question: What about the T/C (dose: 48.0 mg/kg/injection, schedule: Q04DX003 (ip), vehicle: saline) of the same compound?
Answer: 110 % of control

Question: Which T/C (dose: 50.0 mg/kg/injection, schedule: Q01DX009 (ip), vehicle: saline with Tween-80) does the source give for `O=C(CBr)c1ccc(/C=C/c2ccc(Cl)cc2)cc1` here?
Answer: 95 % of control

Question: And the T/C [7]?
Answer: 109 % of control

Question: What about the T/C [8] of the same compound?
Answer: 120 % of control

Question: And the T/C [1]?
Answer: 109 % of control

Question: Which results are given for `CCC/C(=C\C(=O)O)CC`?
Answer: T/C (dose: 100.0 mg/kg/injection, schedule: Q01DX009 (ip), vehicle: Klucel (hydroxypropylcellulose) (HPC)): 109 % of control; T/C (dose: 200.0 mg/kg/injection, schedule: Q01DX009 (ip), vehicle: Klucel (hydroxypropylcellulose) (HPC)): 100 % of control; T/C (dose: 400.0 mg/kg/injection, schedule: Q01DX009 (ip), vehicle: Klucel (hydroxypropylcellulose) (HPC)): 104 % of control
